We go through 65 sequences from paper PMC10065799, “High-throughput profiling of sequence recognition by tyrosine kinases and SH2 domains using bacterial peptide display” (eLife, 2023).

Holding throughout (assay): pTyr-Var library bacterial peptide display kinase screen (enrichment scores)
Assay [1] addresses c-Src kinase domain (Homo sapiens, UniProt P12931). The class given is biochemical. Particulars: sheet "Src".
The target of assay [2] is T1, c-Abl kinase domain (Mus musculus, UniProt P00520).
T1 sequence (P00520 242-493 limits assumed): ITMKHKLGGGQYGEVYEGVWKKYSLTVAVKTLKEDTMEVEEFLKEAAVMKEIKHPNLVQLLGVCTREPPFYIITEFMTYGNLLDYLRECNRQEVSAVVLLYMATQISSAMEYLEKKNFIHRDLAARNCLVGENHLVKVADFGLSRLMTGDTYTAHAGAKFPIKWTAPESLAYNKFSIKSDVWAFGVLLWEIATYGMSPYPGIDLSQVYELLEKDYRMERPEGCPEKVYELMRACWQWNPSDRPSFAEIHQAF
The class given is biochemical.

The subject of assay [3] is Fer kinase domain. In kind it is biochemical, mouse. The conditions noted are these: sheet "Fer".
The test system of assay [4] is EPHB1 kinase domain. In kind it is biochemical, human. Particulars: for Screen (variant relative to reference peptide, measured in the pTyr-Var library screen): sheet "EPHB1", variant seq vs reference seq, bacterial peptide display enrichment; for Screen: sheet EPHB1, effect of the variant peptide relative to its reference peptide in the pTyr-Var library screen (enrichment scores).

Where [5] appears, read: effect of the variant peptide relative to its reference peptide in the pTyr-Var library screen.
Where [6] appears, read: fig5-data2, sheet "Abl", Screen for the variant/reference peptide pair, pTyr-Var library.
Setting [7] is: variant peptide versus its reference peptide in the pTyr-Var library screen.
The mark [8] stands for this setting: variant peptide relative to its reference peptide, pTyr-Var library screen enrichment.
Setting [9] is: value of the variant peptide against its reference peptide in the pTyr-Var library screen with Fer.
Setting [10] is: sheet "Abl", effect of variant peptide relative to its reference peptide in pTyr-Var library screen (enrichment).

With VTAALYGCLFE [BTD_Y536_R538C_YF], the Screen is on record as -0.3028 in assay [1] (setting [5]) and -0.06766 in assay [2] (setting [6]). With PMDGEYFTLQI [TP53_Y327_L323M], the Screen in assay [1] (setting [7]) is reported as 0.4461; in assay [3] (setting [8]) it was 0.4582. On the same counts, the results for CFCSWYRGWAP [TIMP3_Y195_G190C_YF] are 2.542 and 2.823. Turning to VEDQFYRVDCF [FHL1_Y208_C209R_YF], the Screen in assay [1] (setting [5]) is given as -0.6364; in assay [2] (setting [6]) it was 0.3405.

GLIPAYHWVIM [NMNAT1_Y64_R66W] returned a Screen in assay [3] (setting [9]) of 3.48. Take RAMPVYEKAEH [TP63_Y231_K232E]: in assay [3] (setting [8]), the Screen was 2.795. Consider NHFKIYNPCAE [PTEN_Y68_L70P_YF], for which the Screen is -2.716 in assay [1] (setting [7]) and 0.7094 in assay [2] (setting [6]). As for PLDGEYFTRQI [TP53_Y327_L330R], the Screen is -2.245 in assay [1] (setting [7]) and 1.752 in assay [2] (setting [10]).

For the sequence NTGFFYDLFGG [PTPN11_Y63_D61Y_YF], the Screen in assay [1] (setting [7]) is reported as -0.6353; in assay [3] (setting [8]) it was -1.238.

Consider SVCPDYDLCSI [SQSTM1_Y148_V153I], for which the Screen is on record as -2.483 in assay [2] (setting [10]) and 0.6845 in assay [3] (setting [8]). On to DFFDLYGGEKK [PTPN11_Y66_F71K_YF], for which the values for the Screen in assay [1] (setting [7]) and in assay [2] (setting [6]) were -0.3154 and 0.6551, respectively. In the case of GRIHSYRGHLW [VHL_Y112_R107G], the “Screen (variant relative to reference peptide, measured in the pTyr-Var library screen)” value in assay [4] is listed as -1.934. In assay [1] (setting [7]), this sequence came in with a Screen of -3.383. Turning to CLNAIYQNNLT [GSR_Y158_R153C], the Screen in assay [3] (setting [9]) was 1.727. EVASVYESFQP [MAVS_Y92_Q93E_YF]: the Screen in assay [1] (setting [5]) was 0.01447; in assay [3] (setting [9]), 1.389.

On to GLCSFYETSKM [MAGED2_Y449_R446C_YF], for which the Screen in assay [3] (setting [9]) was 1.926. Consider RRIHCYRGHLW [VHL_Y112_S111C], for which the “Screen (variant relative to reference peptide, measured in the pTyr-Var library screen)” value in assay [4] was -1.56. The Screen in assay [1] (setting [7]) is -2.571.

As for TSPALYRLDLD [TRIL_Y352_A347T], the Screen is -0.36 in assay [1] (setting [7]) and -0.2355 in assay [2] (setting [10]). In assay [2] (setting [6]), REGAKYVSHGT [ASS1_Y113_A118T] registered a Screen of 0.5424. On to LITTLYIGFLD [KCNQ1_Y267_G272D], for which the Screen in assay [1] (setting [5]) is 0.3249; in assay [3] (setting [9]), 0.7229. EWQQIYTFDSG [JUP_Y20_T19I_YF]: the Screen stood at 0.7952 in assay [1] (setting [5]) and 3.242 in assay [3] (setting [9]).

WANPEYTGGFK [TTN_Y22309_K22306N] returned a Screen in assay [2] (setting [10]) of -1.867. Consider SKNSKYNAGST [PSEN1_Y315_E318G], for which the Screen in assay [2] (setting [6]) was -0.477. As to MGSFNYLGFPR [SPTLC2_Y178_A182P_YF], in assay [4], the “Screen (variant relative to reference peptide, measured in the pTyr-Var library screen)” value was found to be 0.8704. Consider VNFGAYINDFN [GLB1_Y488_K493N_YF], for which the Screen in assay [2] (setting [6]) turned out to be 0.7194. HSVLNYGVCVC [JAK2_Y613_L609S] came in with a Screen in assay [4] of -0.7312.

For the sequence TAGFIYEKWEI [TEC_Y360_S359I], the Screen in assay [1] (setting [7]) is listed as 3.208; in assay [3] (setting [8]), 3.032. FFRNVYHLASV [RBL1_Y796_K794N_YF] yielded a Screen in assay [2] (setting [6]) of -1.016. For the sequence ISHVAYLVLGK [TRRAP_Y892_R893L], the Screen in assay [2] (setting [10]) is -1.807. EKKKFYDAKIE [CASP5_Y104_T106A_YF] came in with a Screen in assay [2] (setting [6]) of 2.357.

LDPDSYNKFEN [FOXC1_Y159_M161K] showed a Screen in assay [2] (setting [6]) of 0.592. The sequence RNGDRYFKEIV [DCX_Y64_G67E] gave a Screen in assay [2] (setting [6]) of 1.189.

In the case of QEGPEYWDLET [HLA-A_Y83_Q86L], in assay [4], the Screen is listed as 0.9985. Still for that read-out and setting: then PAGSGYPAFLG [ATP6V1A_Y374_D371G_YF], with -1.134. QRRLVYFERGA [RYR1_Y245_G248R_YF]: in assay [2] (setting [6]), the Screen was determined as 1.153. For KKHIPYKEHKS [CSNK1G1_Y205_R206K], the Screen in assay [4] is -0.623; in assay [3] (setting [9]) it was -0.8729. LNSFIYSLRNR [OR1A1_Y288_P285S]: the Screen in assay [1] (setting [7]) came to 0.8467; in assay [2] (setting [6]) it was 0.03527. In assay [2] (setting [6]), CKLVDYDSARH [BIN1_Y150_R145C] returned a Screen of 0.9945. Consider VQQVIYATRAL [MYH7_Y422_G425R], for which the results for the Screen in assay [1] (setting [7]) and in assay [2] (setting [6]) were 0.27 and -0.009809, respectively.

Consider PQIVKYRPDCI [LDHB_Y128_S129R], for which the Screen in assay [2] (setting [6]) is -0.6179. The same measure, in the same setting: in the case of EDKSIYRRGAC [PRKCI_Y125_R130C] it was 0.9369.

For FDAHIYEGCVI [PRKCD_Y64_R67C], the Screen is 0.6982 in assay [1] (setting [7]) and 2.331 in assay [3] (setting [9]). For LANNEYFFQVC [TTN_Y18997_R19000Q_YF], the “Screen (variant relative to reference peptide, measured in the pTyr-Var library screen)” value in assay [4] was 1.182. On to REHTVYWEPRK [MAGEA4_Y240_G241W], for which the Screen is listed as 3.741 in assay [4] and 1.621 in assay [1] (setting [5]). In the case of GGPAEYLRRAS [PKLR_Y38_G37E], in assay [2] (setting [6]), the Screen is given as 0.6619. For HSSPVYVGRVV [TGM2_Y219_R214H], the “Screen (variant relative to reference peptide, measured in the pTyr-Var library screen)” value in assay [4] is 1.553. The Screen is listed as 0.1113 in assay [1] (setting [7]) and 0.4894 in assay [3] (setting [8]). Consider KGEDFYCVTFH [FHL1_Y149_C153Y_YF], for which the Screen in assay [2] (setting [6]) is -1.856; in assay [3] (setting [9]) it was 1.626.

For the sequence QRRLIYRCQVG [NR2E3_Y81_R76Q], the Screen in assay [2] (setting [6]) is given as 1.984.

In the case of RRIHNYRGHLW [VHL_Y112_S111N], the “Screen (variant relative to reference peptide, measured in the pTyr-Var library screen)” value in assay [4] is -1.094. Further, the Screen in assay [1] (setting [7]) is listed as -2.675. For CEAMEYPESKQ [BTK_Y511_L512P], in assay [2] (setting [6]), the Screen was -1.088. In assay [4], CPFNLYAEQFS [HGD_Y40_L44F_YF] showed a Screen of 0.9285.

For the sequence IRRIAYEFVEM [ADA_Y84_K80R], the Screen in assay [3] (setting [9]) was -0.04574. Take EEQFFYEKAIL [BCCIP_Y257_E254Q]: the Screen was 0.5588 in assay [2] (setting [6]) and -0.4348 in assay [3] (setting [9]).

TGQEDYDRLRP [RAC1_Y64_A59T] yielded a Screen in assay [2] (setting [6]) of -1.28. With PFSNSYENSLI [EPOR_Y489_P488S_YF], the Screen in assay [3] (setting [9]) was -1.474. With LTDTVYSSSSA [OR4C12_Y71_I67T], the Screen in assay [1] (setting [7]) is given as -0.5241; in assay [3] (setting [9]), 0.3207.

As to LGKGSYAKVRS [TSSK2_Y23_K27R], the Screen is on record as -0.7681 in assay [1] (setting [7]) and 0.9991 in assay [2] (setting [10]). FPLELYERVRI [PRKCG_Y312_M317I_YF]: the Screen was -0.1732 in assay [4], 2.263 in assay [2] (setting [6]) and 0.4614 in assay [3] (setting [9]). Regarding QFFQGYFNNNF [ZNF236_Y644_S643G], the Screen in assay [2] (setting [10]) worked out at 3.465. Regarding APRKVYDTQDD [ZFPL1_Y215_R218Q], the Screen in assay [2] (setting [10]) is listed as 3.612.

QRRFLYFFSFL [PTEN_Y176_V175L_YF] returned a Screen in assay [3] (setting [9]) of -0.3574. In the case of NTGNFYDLFGG [PTPN11_Y63_D61N_YF], the results for the Screen in assay [1] (setting [7]) and in assay [3] (setting [9]) were 0.1419 and 0.7498, respectively. For the sequence FSMGCYEISLE [HMGCL_Y198_G203E_YF], the Screen is -0.09414 in assay [1] (setting [5]) and -0.6623 in assay [3] (setting [9]). With CTTIRYNFMCN [TP53_Y234_H233R_YF], in assay [2] (setting [10]), the Screen was 1.107. Sequence PEADKYHLTFA [FGG_Y300_R301H_YF] came in with a Screen in assay [4] of 0.9471.

In assay [2] (setting [6]), IMITGYLLLFR [INSR_Y87_D86G] displayed a Screen of 0.04202.
